Where a SMILES comes first, the peptide text is derived from it. [ ]: non-standard residue; d: D form. The star is where a group is joined. X14 = CC(C)(COC(=O)*)SSc1nc2cc([N+](=O)[O-])ccc2[nH]1; Dolaproine = CO[C@@H]([C@@H]1CCCN1)[C@@H](C)C(=O)O; X11 = CC(C)(COC(=O)*)SSc1nc2ccc(C(=O)O)cc2[nH]1; Dil = CC[C@H](C)[C@H](NC)[C@@H](CC(=O)O)OC; X16 = CN(C)C(=O)c1cnccc1SSC(C)(C)COC(=O)*; X10 = CC(C)(COC(=O)*)SSc1nc2ncncc2[nH]1; X12 = Cn1c(C(=O)O)cnc1SSC(C)(C)COC(=O)*; X13 = CC(C)(COC(=O)*)SSc1nc2cnccc2[nH]1; X17 = Cn1c(SSC(C)(C)COC(=O)*)nc2ccccc21; X2 = C[C@@H](N*)[C@@H](O)c1ccccc1; NMeV = CN[C@H](C(=O)O)C(C)C
Assays:
[1] = target: human serum albumin Cys-34 (Homo sapiens, UniProt P02768); assay: Conjugation of activated disulfide-MMAE molecules to human serum albumin (Conjugate Ratio, LC/MS); details: disulfide MMAE compound at 10 molar equivalents relative to HSA, 75 mM Tris pH 8.5, ~16 hours at room temperature
Experimental: In a first evaluation, MMAE was conjugated to human serum albumin (HSA). […] This Cys residue is blocked as a mixed disulfide with Cys or glutathione, preventing complete conjugation of other molecules to this residue. […] Conjugate reactions were analyzed by LC/MS. The extent of the expected MMAE-HSA conjugate formed during the reaction is represented by the “Conjugate Ratio”, measured by dividing the abundance of the MS peak for the MMAE-HSA conjugate by the sum total abundance of all peaks observed. The ideal value for the Conjugate Ratio is 1.0. The results are reported in table 31 below wherein the wavy line for the leaving group represents the point of attachment to the disulfide bond, and “HSA CR” refers to human serum albumin conjugate ratio.

[2] = target: T1, penetratin (AntP) peptide (Drosophila melanogaster, UniProt P02833); assay: Conjugation of activated disulfide-MMAE molecules to penetratin (AntP) peptide (% Product); details: peptide 25 uM, disulfide MMAE 5 equivalents, 75 mM Tris pH 8.5 and 10% DMF, ~16 hours at room temperature, UV peak area
T1 construct: C-terminal amide (CONH2); made in house; host or cells: chemical synthesis (Fmoc solid-phase peptide synthesis)
Experimental: In a second evaluation, MMAE was conjugated to penetratin (AntP) peptide. The AntP peptide, with sequence H2N-[…]-CONH2 (SEQ ID NO:1) bearing a free Cys thiol at the C-terminus, was synthesized via standard Fmoc solid-phase peptide synthesis methods. This peptide was conjugated at a concentration of 25 uM to disulfide MMAE molecules with varying leaving groups (5 equivalents) in a buffered solution composed of 75 mM Tris, pH 8.5 and 10% DMF for ˜16 hours at room temperature. Extent of the reaction was measured by dividing the integrated area for the UV peak of the MMAE-AntP conjugate by the sum of all peaks (“% Product”). The ideal value for % Product is 100%. The results are reported in table 31 below wherein the wavy line for the leaving group represent the point of attachment to the disulfide bond, and “AntP % P” refers to penetratin (AntP) peptide % product.

[3] = In vitro disulfide cleavage and immolation by incubation with cysteine or glutathione (LC/MS); type: physicochemical; details: for Percentage of all products: pH 7.0, 37° C.
Experimental: In a first phase of the experiment, disulfide cleavage and immolation by incubation with cysteine and glutathione—with the thiol concentrations mimic those in plasma and cancer cells—was investigated using unconjugated small molecule model systems with para-nitro-pyridyl disulfide-containing linker drug analogs 1, 2 and 11 below. In particular, cleavage and immolation was evaluated in vitro by incubation at […] with cysteine ([…] or 200 μM) or glutathione (GSH, 4 mM) in 100 mM Tris buffer pH 7.0 containing 5% methanol at 37° C. Aliquots were taken at specified time points and the samples were analyzed by LC/MS on Sciex TripleTOF 5600 on a Hypersil Gold C18 column (100×2.1, […], Thermo Scientific). The column was eluted by a gradient of buffer A (0.1% formic acid in 10 mM ammonium acetate) to buffer B (0.1% formic acid in 10 mM ammonium acetate in 90% acetonitrile), 5% B 0-0.5 min, 5-25% B 0.5-8 min, 25-75% B 8-13 min, and 75-95% B 13-13.5 min, 95% B 13.5-14.5 min, 95-5% B 14.5-15 min at 0.4 mL/min. Under these conditions, para-nitropyridyl thiol was eluted at 5.3 min. All products (compounds 1, 2, 11, 3a, 3b, 4a, 4b, 12a, 12 b, 6, 7, 13 and 8) were separated and characterized by LC/MS/MS in a positive ESI ion mode. All analytes had the protonated molecular MH^+ as the major species with little source fragmentation. Full scan accurate mass peak areas were used to estimate relative abundance of each component and the disappearance of 1, 2, and 11 estimated relative full scan peak areas was consistent with that estimated based on the relative abundance compared to time 0 by MS or UV. The results are reported in Table 15 below and the analytical results are presented in Table 16 below where “Cmpd” refers to compound, “RT” refers to retention time in minutes, and “Calc. Mass” refers to calculated mass. The relative abundance of disulfide cleavage and immolation products over time were evaluated and are disclosed in FIGS. 12A to 12C, 13A to 13C, 14A to 14C and 15A to 15C where the products were monitored by LC/MS from incubations of linker drugs 1, 2, and 11 at pH 7.0 and 37° C. in the presence of: 0.2 mM cysteine (FIGS. 12A, 12B and 12C); 0.03 mM cysteine (FIGS. 13A, 13B and 13C); 4 mM glutathione (FIGS. 14A, 14B and 14C); and 0.03 mM glutathione (FIGS. 15A, 15B and 15C). In FIGS. 12A to 12C, 13A to 13C, 14A to 14C and 15A to 15C, compound reference numbers 1, 2, 3a, 3b, 4a, 4b, 6, 7, 8, 11, 12a, 12b and 13 correspond to the structures below.

Chain of human serum albumin Cys-34 (P02768 25-609): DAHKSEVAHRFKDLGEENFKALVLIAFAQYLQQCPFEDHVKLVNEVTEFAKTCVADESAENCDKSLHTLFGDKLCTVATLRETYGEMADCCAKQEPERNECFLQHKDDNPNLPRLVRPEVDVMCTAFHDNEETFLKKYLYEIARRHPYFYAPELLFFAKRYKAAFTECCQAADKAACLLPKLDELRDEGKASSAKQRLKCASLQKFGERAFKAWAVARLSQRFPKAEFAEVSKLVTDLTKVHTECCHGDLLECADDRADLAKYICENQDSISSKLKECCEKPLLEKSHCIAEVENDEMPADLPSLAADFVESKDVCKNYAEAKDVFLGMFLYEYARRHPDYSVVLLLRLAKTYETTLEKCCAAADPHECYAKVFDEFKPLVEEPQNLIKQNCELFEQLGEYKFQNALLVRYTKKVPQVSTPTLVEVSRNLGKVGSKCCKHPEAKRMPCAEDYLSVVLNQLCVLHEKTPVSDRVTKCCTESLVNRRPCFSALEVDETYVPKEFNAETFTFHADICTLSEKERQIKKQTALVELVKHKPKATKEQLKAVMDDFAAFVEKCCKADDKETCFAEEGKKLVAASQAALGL

Structure (SMILES) | HAS CR (HSA Conjugation Ratio) [1] | AntP % P (penetratin (AntP) peptide % product) [2] | also measured
CC[C@H](C)[C@@H]([C@@H](CC(=O)N1CCC[C@H]1[C@H](OC)[C@@H](C)C(=O)N[C@H](C)[C@@H](O)c1ccccc1)OC)N(C)C(=O)[C@@H](NC(=O)[C@H](C(C)C)N(C)C(=O)OCC(C)(C)SSc1nc2ncncc2[nH]1)C(C)C (X10-[NMeV]V[Dil][Dolaproine]-X2) | 0.6 | 34% | –
CC[C@H](C)[C@@H]([C@@H](CC(=O)N1CCC[C@H]1[C@H](OC)[C@@H](C)C(=O)N[C@H](C)[C@@H](O)c1ccccc1)OC)N(C)C(=O)[C@@H](NC(=O)[C@H](C(C)C)N(C)C(=O)OCC(C)(C)SSc1nc2ccc(C(=O)O)cc2[nH]1)C(C)C (X11-[NMeV]V[Dil][Dolaproine]-X2) | 0.64 | 20% | –
CC[C@H](C)[C@@H]([C@@H](CC(=O)N1CCC[C@H]1[C@H](OC)[C@@H](C)C(=O)N[C@H](C)[C@@H](O)c1ccccc1)OC)N(C)C(=O)[C@@H](NC(=O)[C@H](C(C)C)N(C)C(=O)OCC(C)(C)SSc1ncc(C(=O)O)n1C)C(C)C (X12-[NMeV]V[Dil][Dolaproine]-X2) | 0.55 | 4% | –
CC[C@H](C)[C@@H]([C@@H](CC(=O)N1CCC[C@H]1[C@H](OC)[C@@H](C)C(=O)N[C@H](C)[C@@H](O)c1ccccc1)OC)N(C)C(=O)[C@@H](NC(=O)[C@H](C(C)C)N(C)C(=O)OCC(C)(C)SSc1nc2cnccc2[nH]1)C(C)C (X13-[NMeV]V[Dil][Dolaproine]-X2) | 0.86 | 26% | –
CC[C@H](C)[C@@H]([C@@H](CC(=O)N1CCC[C@H]1[C@H](OC)[C@@H](C)C(=O)N[C@H](C)[C@@H](O)c1ccccc1)OC)N(C)C(=O)[C@@H](NC(=O)[C@H](C(C)C)N(C)C(=O)OCC(C)(C)SSc1nc2cc([N+](=O)[O-])ccc2[nH]1)C(C)C (X14-[NMeV]V[Dil][Dolaproine]-X2) | 0.69 | 26% | –
CC[C@H](C)[C@@H]([C@@H](CC(=O)N1CCC[C@H]1[C@H](OC)[C@@H](C)C(=O)N[C@H](C)[C@@H](O)c1ccccc1)OC)N(C)C(=O)[C@@H](NC(=O)[C@H](C(C)C)N(C)C(=O)OCC(C)(C)SSc1ccncc1C(=O)N(C)C)C(C)C (X16-[NMeV]V[Dil][Dolaproine]-X2) | 0.22 | 51% | –
CC[C@H](C)[C@@H]([C@@H](CC(=O)N1CCC[C@H]1[C@H](OC)[C@@H](C)C(=O)N[C@H](C)[C@@H](O)c1ccccc1)OC)N(C)C(=O)[C@@H](NC(=O)[C@H](C(C)C)N(C)C(=O)OCC(C)(C)SSc1nc2ccccc2n1C)C(C)C (X17-[NMeV]V[Dil][Dolaproine]-X2) | 0.87 | 7.5% | –
C=C1C[C@H]2C=Nc3cc(OCCCCCOc4cc5c(cc4OC)C(=O)N4CC(=C)C[C@H]4C(O)N5C(=O)OCC4(S)CCC4)c(OC)cc3C(=O)N2C1 (stereo partly drawn) [Compound 13] | – | – | Percentage of all products ([3]; 30 μM cysteine, 1 h): 1.3%; Percentage of all products ([3]; 30 μM cysteine, 4 h): 1.1%; Percentage of all products ([3]; 30 μM cysteine, 24 h): 0.1%; Percentage of all products ([3]; 200 μM cysteine, 1 h): 3.2%; Percentage of all products ([3]; 200 μM cysteine, 4 h): 1.6%; Percentage of all products ([3]; 200 μM cysteine, 24 h): 0%; Percentage of all products ([3]; 4 mM GSH, 1 h): 2.3%; Percentage of all products ([3]; 4 mM GSH, 4 h): 0%; Percentage of all products ([3]; 4 mM GSH, 24 h): 0%; Immolation of thiol intermediate ([3]; incubation with cysteine or glutathione): efficient immolation
